Source: patent publication US11964954B1 (KING FAISAL UNIVERSITY, priority 2023, dated 2024)

Assays:
[1] = test system: human prostate cancer cells (PC3); test: Cytotoxicity by SRB assay, PC3 cells; type: cell-based; settings: for IC50: mean±SD
Protocol: (§1) The human prostate cancer cells (PC3) and human osteosarcoma cells (MG-63) were obtained from Nawah Scientific Inc. (Mokatam, Cairo, Egypt) and cultured in DMEM (Dulbecco's modified eagle's medium), Gibco, USA, supplemented with fetal bovine serum (FBS) at a concentration of 10% and 100 U/mL of penicillin and streptomycin (PS). The cells were incubated at 37° C. in a humidified environment that contained 5% CO2.
(§2) Cells were seeded in 96-well plates as aliquots of 100 μL cell suspension and incubated in a complete media for 24 h. Afterward, cells were treated with N′-[(2-chlorobenzoyl)oxy]-1,3-benzothiazole-2-carboximidamide at diverse concentrations ranging from 0.01 μM to 100 μM for 72 h. Then, cells were fixed at 4° C. for one hour with 150 μL of 10% trichloroacetic acid (TCA). After washing the cells five times with distilled water, 70 μL of sulforhodamine (SRB) solution (0.4% w/v) was added and incubated for 10 min at room temperature in a dark place. Cells were washed with 1% acetic acid three times and allowed to air-dry. Then, 150 μL of Tris pH 10.5 (10 mM) was added, and the absorbance was measured at 540 nm using a BMG LABTECH®-FLUOstar Omega microplate reader (Ortenberg, Germany). Half maximal inhibitory concentrations (IC50) values were calculated for each experiment using GraphPad Prism 6 software. IC50 values were reported as mean±SD.
(§3) The inhibition was calculated using the following equation: Inhibition %=100-Average Viability

[2] = test system: human osteosarcoma cells (MG-63); test: Cytotoxicity by SRB assay, MG-63 cells; type: cell-based; settings: for IC50: mean±SD
Protocol: as §1, §2, §3

[3] = test system: Bacillus cereus, Staphylococcus aureus, Pseudomonas aeruginosa, Escherichia coli, Aspergillus flavus, Chrysosporium keratinophilum; test: Agar plate disc-diffusion antimicrobial screening; type: cell-based; settings: 10 μL of 10 mg/mL in DMSO per disc, result in words only
Protocol: The agar plate disc-diffusion method was applied. Sterilized filter papers (6 mm in diameter) were wetted with 10 μL of a solution of each compound to be tested, containing 10 mg/mL in DMSO, and the discs were allowed to air dry. The discs were then placed onto the surface of agar plates (nutrient agar for bacteria and Sabouraud's dextrose agar for fungi) and seeded with the test organism. Each plate contained 15 mL of the agar medium, previously seeded with 0.2 mL of the broth culture of each organism pre-grown for 18 h. The plates were incubated at 37° C. for 48 h, and 72 h for fungi. The inhibition zones were measured in mm. Discs impregnated with DMSO were used as a control, and its inhibition zone was subtracted from the tested compound actual inhibition zone.
In particular, the present N′-[(2-chlorobenzoyl)oxy]-1,3-benzothiazole-2-carboximidamide was screened against gram positive bacteria, namely Bacillus cereus and Staphylococcus aureus, and gram-negative bacterial strains, namely Pseudomonas aeruginosa and Escherichia coli, while the antifungal activity was screened against Aspergillus flavus and Chrysosporium keratinophilum.

Compound | inhibition at 10 µg/mL ([1]; Homo sapiens, PC-3, 72 h, Prostate cancer (PC-3), 10 μg/ml, 72 h) | inhibition at 100 µg/mL ([1]; Homo sapiens, PC-3, 72 h, Prostate cancer (PC-3), 100 μg/ml, 72 h) | IC50 ([1]; Homo sapiens, PC-3, 72 h) | IC50 ([1]; PC-3, 72 h) | Inhibition % ([1]; Prostate cancer (PC-3), 10 μg/ml, 72 h, listed as N'-[(2-chlorobenzoyl)oxy]-1,3-benzothiazole-2-carboximidamide) | inhibition at 10 µg/mL ([2]; Homo sapiens, MG-63, 72 h, Osteosarcoma (MG-63), 10 μg/ml, 72 h) | inhibition at 100 µg/mL ([2]; Homo sapiens, MG-63, 72 h, Osteosarcoma (MG-63), 100 μg/ml, 72 h) | IC50 ([2]; Homo sapiens, MG-63, 72 h) | IC50 ([2]; MG-63, 72 h) | Inhibition % ([2]; Osteosarcoma (MG-63), 10 μg/ml, 72 h, listed as N'-[(2-chlorobenzoyl)oxy]-1,3-benzothiazole-2-carboximidamide) | antimicrobial activity [3] | melting point
N/C(Cc1nc2ccccc2s1)=N\OC(=O)c1ccccc1Cl | 95% | 96% | < 4 µM | 2.69 ± 0.03 µM | 95.61% | 95% | 91.3% | < 4 µM | 3.45 µM | 90.17% | excellent antimicrobial activities | 110 to 112 °C
COc1cccc2c1C(=O)c1c(O)c3c(c(O)c1C2=O)C[C@@](O)(C(=O)CO)C[C@@H]3O[C@H]1C[C@H](N)[C@H](O)[C@H](C)O1 [DOX, Doxorubicin, reference compound] | – | – | 7.6 ± 0.45 µM | – | – | – | – | 9.4 ± 1.1 µM | – | – | – | –
